The values below come from patent US7511173B2, “Creatine salt with enhanced nutritional and therapeutic efficacy and compositions containing same” (Iovate T & P Inc., priority 2004, dated 2009).

What all share (assay type): physicochemical
The nature of one series: pH of aqueous solution. The note with it: c = 1% in water.
The nature of a further series: hygroscopicity.
Series [1] is described as follows: stability in aqueous solution (titer, degradation into creatinine). As to conditions: solution of about 15 mg/ml (1.5%), after 10 days at room temperature.

In the case of `CN(CC(=O)O)C(=N)N.NCC(=O)O` [creatine glycinate], the pH in the series “pH of aqueous solution” was 6; c = 1% in water. The hygroscopicity result in “hygroscopicity” is given as “non-hygroscopic”. For citrate, the “titer drop in aqueous solution” value in series [1] is on record as “about 50%”.
